This note sets out measurements from US8778966B2, “Quinolinone derivatives as PARP and tank inhibitors” (Janssen Pharmaceutica, NV, priority 2007, dated 2014).

The assay has as its system HCT116 cells. As to the kind of experiment: Antiproliferative activity, Alamar Blue assay, HCT116 cells. Type of assay: cell-based, human. The note with it: Homo sapiens, HCT-116, HCT116 cells, Alamar Blue; read-out: HCT116 antiproliferative activity pIC50 (converted). Put shortly: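 HCT116 cells seeded, adhered 24 h, then exposed to compound for 4 days; Alamar Blue (resazurin) added for 4 h at 37 °C, fluorescence read at 540/590 nm. Viability as % of untreated control, triplicate wells; IC50 by probit analysis, reported as pIC50.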
(In general: The colour change of resazurin is a common sign of viable cells or microbes.)

As to `CCc1cc2ccc(C(C)(C#N)Cc3cc(OC)nc(C)n3)cc2[nH]c1=O` (centres unmarked) [Compound 366], the IC50 is 631 nM.
Under `CCc1cc2ccc(C(C)(C#N)Cc3cc(OCCOC)nc(Cl)n3)cc2[nH]c1=O` (centres unmarked) [Compound 367] stands 2510 nM; under `CCc1cc2ccc(C(C)(C#N)Cc3nc(C)cc(C)n3)cc2[nH]c1=O` (centres unmarked) [Compound 368], 1580 nM.
Under `CCc1cc2ccc(C(C)(C#N)Cc3nccc(OCCOC)n3)cc2[nH]c1=O` (centres unmarked) [Compound 369] stands 3980 nM; under `CCc1cc2ccc(C(C)(C#N)Cc3nc(Cl)cc(OCCOC)n3)cc2[nH]c1=O` (centres unmarked) [Compound 370], 1580 nM; under `CCc1cc2ccc(C(C)(C#N)Cc3cc(Cl)nc(Cl)c3)cc2[nH]c1=O` (centres unmarked) [Compound 372], 398 nM.
As for `CCc1cc2ccc(C(C)(C#N)Cc3cc(OC)ccn3)cc2[nH]c1=O` (centres unmarked) [Compound 373], the IC50 was 7940 nM.
Under `CCc1cc2ccc(C(C)(C#N)CC3CCc4ccccc4O3)cc2[nH]c1=O` (centres unmarked) [Compound 399] stands 631 nM.
